“And” between values parts separate entries of the source, which are not always exact repeats. Equal values may be shown once.
Tests used:
dDAT D121G/S426M = conditions: cited from earlier work
WT dDAT = conditions: read-out: nisoxetine-binding affinity Kd; cited from earlier work
dDATmfc = biological target: T1, dDATmfc (Drosophila melanogaster, UniProt Q7K4Y6, DEL162-202/F471L/L415A/V74A); assay: [3H] nisoxetine binding, scintillation proximity assay, purified dDATmfc; conditions: for Specific CPM/p.mole protein: DATmfc, single replicates
T1 construct: GFP-8x-His (C); made in house; host or cells: HEK293S GnTI- cells, BacMam baculovirus transduction
Description: (§1) Binding assays were performed with 20 nM of purified dDAT protein by scintillation proximity assay. For determining nisoxetine Kd, [^3H] Nisoxetine (Perkin Elmer) (in 1:5 molar ratio) was used in the range of 0.1 nM to 500 nM with 100 µM desipramine added to the control samples. Competition assays were done with 50 nM [^3H] […] The assays were done in 1 mM DDM, 0.2 mM CHS, 20 mM Tris-Cl (pH 8), 300 mM NaCl and 5% glycerol. The background values were subtracted to plot the final curves in GraphPad prism v5.0.1 and the Kd values were calculated. The IC50 values obtained from binding competition assays were used to deduce the Ki values by Cheng–Prusoff’s equation.

hNET = conditions: read-out: nisoxetine-binding affinity Kd; cited from earlier work
dDATNET = biological target: T2, dDATNET (Drosophila melanogaster, UniProt Q7K4Y6, D121G/DEL162-202/F471L/L415A/S426M/V74A); assay: [3H] nisoxetine binding, scintillation proximity assay, purified dDATNET; conditions: for Specific CPM/p.mole protein: DAT_NET, single replicates
T2 construct: GFP-8x-His (C); made in house; host or cells: HEK293S GnTI- cells, BacMam baculovirus transduction
Description: as §1

SMILES | increment in ability to compete for nisoxetine / affinity with hNET-like mutations D121G and S426M in subsite B (dDAT D121G/S426M) [fold] | Kd (WT dDAT) [nM] | Kd (dDATmfc) [nM] | Specific CPM/p.mole protein (dDATmfc; Nisox 0.1 nM) | Specific CPM/p.mole protein (dDATmfc; Nisox 1 nM) | Specific CPM/p.mole protein (dDATmfc; Nisox 3 nM) | Specific CPM/p.mole protein (dDATmfc; Nisox 10 nM) | Specific CPM/p.mole protein (dDATmfc; Nisox 30 nM) | Specific CPM/p.mole protein (dDATmfc; Nisox 100 nM) | Specific CPM/p.mole protein (dDATmfc; Nisox 300 nM) | Specific CPM/p.mole protein (dDATmfc; Nisox 500 nM) | Kd (hNET) [nM] | Specific CPM/p.mole protein (dDATNET; Nisox 0.1 nM) [CPM/p.mole protein] | Specific CPM/p.mole protein (dDATNET; Nisox 100 nM) | Specific CPM/p.mole protein (dDATNET; Nisox 300 nM) | Specific CPM/p.mole protein (dDATNET; Nisox 500 nM) | Kd (dDATNET; Nisoxetine Kd, dDATNET) [nM] | Kd (dDATNET; dissociation constants (Kd) for nisoxetine, range over the dDAT constructs used in this study (dDATNET, dDATmfc)) [nM]
COC(=O)[C@H]1[C@@H](OC(=O)c2ccccc2)C[C@@H]2CC[C@H]1N2C [cocaine] | 10 | – | – | – | – | – | – | – | – | – | – | – | – | – | – | – | – | –
CNCCC(Oc1ccccc1OC)c1ccccc1 (stereo not drawn) [nisoxetine] | – | 5 | 3.82 ± 0.39 | 7 CPM/p.mole protein and 10 CPM/p.mole protein and 3 CPM/p.mole protein and 24 CPM/p.mole protein and 15 CPM/p.mole protein (2×) and 14 CPM/p.mole protein and 9 CPM/p.mole protein and 6 CPM/p.mole protein | 126 CPM/p.mole protein and 128 CPM/p.mole protein and 141 CPM/p.mole protein and 114 CPM/p.mole protein and 102 CPM/p.mole protein and 95 CPM/p.mole protein and 97 CPM/p.mole protein and 78 CPM/p.mole protein and 120 CPM/p.mole protein | 292 CPM/p.mole protein and 269 CPM/p.mole protein and 300 CPM/p.mole protein and 210 CPM/p.mole protein and 245 CPM/p.mole protein and 211 CPM/p.mole protein and 113 CPM/p.mole protein and 184 CPM/p.mole protein and 198 CPM/p.mole protein | 455 CPM/p.mole protein (2×) and 499 CPM/p.mole protein and 413 CPM/p.mole protein (2×) and 477 CPM/p.mole protein and 371 CPM/p.mole protein (2×) and 397 CPM/p.mole protein | 491 CPM/p.mole protein and 537 CPM/p.mole protein and 503 CPM/p.mole protein and 506 CPM/p.mole protein and 442 CPM/p.mole protein (2×) and 439 CPM/p.mole protein and 427 CPM/p.mole protein and 408 CPM/p.mole protein | 566 CPM/p.mole protein and 545 CPM/p.mole protein and 533 CPM/p.mole protein and 507 CPM/p.mole protein and 558 CPM/p.mole protein and 473 CPM/p.mole protein and 465 CPM/p.mole protein and 441 CPM/p.mole protein and 405 CPM/p.mole protein | 627 CPM/p.mole protein and 611 CPM/p.mole protein and 570 CPM/p.mole protein and 569 CPM/p.mole protein and 527 CPM/p.mole protein and 520 CPM/p.mole protein and 528 CPM/p.mole protein and 490 CPM/p.mole protein and 436 CPM/p.mole protein | 632 CPM/p.mole protein and 609 CPM/p.mole protein and 595 CPM/p.mole protein and 628 CPM/p.mole protein and 619 CPM/p.mole protein and 565 CPM/p.mole protein and 554 CPM/p.mole protein and 465 CPM/p.mole protein and 467 CPM/p.mole protein | 1.9 | 20 | 565 CPM/p.mole protein and 636 CPM/p.mole protein and 590 CPM/p.mole protein and 524 CPM/p.mole protein and 548 CPM/p.mole protein and 546 CPM/p.mole protein and 490 CPM/p.mole protein and 531 CPM/p.mole protein and 494 CPM/p.mole protein | 687 CPM/p.mole protein and 533 CPM/p.mole protein (2×) and 630 CPM/p.mole protein and 583 CPM/p.mole protein and 563 CPM/p.mole protein and 581 CPM/p.mole protein and 730 CPM/p.mole protein and 516 CPM/p.mole protein | 735 CPM/p.mole protein and 683 CPM/p.mole protein and 709 CPM/p.mole protein and 618 CPM/p.mole protein and 586 CPM/p.mole protein and 593 CPM/p.mole protein and 630 CPM/p.mole protein and 670 CPM/p.mole protein and 642 CPM/p.mole protein | 2.79 ± 0.27 | 2.8 to 3.8
